Test results taken from patent publication US20240000872A1, “NOVEL BACTERIOPHAGE THAT LYSES ACINETOBACTER GENUS BACTERIA HAVING RESISTANCE TO ANTIBIOTICS” (priority 2020, published 2024).

System: Acinetobacter baumannii strains
Experiment: Antibiotic susceptibility test (CLSI disk diffusion test method, read per CLSI 2016); on antibiotic susceptibility S/I/R: key: ‘S’ means susceptible; ‘I’ means intermediate; ‘R’ means resistant; on susceptibility category (S/I/R): key: ‘S’ means susceptible; ‘I’ means intermediate; ‘R’ means resistant
Format: cell-based
Set-up: antibiotic susceptibility test value / susceptibility test value (number given before S/I/R) / antibiotic susceptibility value: unit not given here

piperacillin-tazobactam
antibiotic susceptibility value (host strain YMC16/01/R353): 128 | susceptibility category (S/I/R) (host strain YMC16/01/R353): R | susceptibility test value (number given before S/I/R) (host strain YMC16/01/R353): 128 | antibiotic susceptibility S/I/R (host strain YMC16/01/R380): R | antibiotic susceptibility value (host strain YMC16/01/R380): 128 | susceptibility category (S/I/R) (host strain YMC16/01/R380): R | susceptibility test value (number given before S/I/R) (host strain YMC16/01/R380): 128 | antibiotic susceptibility S/I/R (host strain YMC16/01/R397): R | antibiotic susceptibility value (host strain YMC16/01/R397): 128 | susceptibility category (S/I/R) (host strain YMC16/01/R397): R | susceptibility test value (number given before S/I/R) (host strain YMC16/01/R397): 128 | antibiotic susceptibility S/I/R (host strain YMC16/01/R405): R | antibiotic susceptibility value (host strain YMC16/01/R405): 128 | susceptibility category (S/I/R) (host strain YMC16/01/R405): R | susceptibility test value (number given before S/I/R) (host strain YMC16/01/R405): 128 | antibiotic susceptibility S/I/R (host strain YMC16/03/R4461): R | antibiotic susceptibility value (host strain YMC16/03/R4461): 128 | susceptibility category (S/I/R) (host strain YMC16/03/R4461): R | susceptibility test value (number given before S/I/R) (host strain YMC16/03/R4461): 128 | antibiotic susceptibility S/I/R (host strain YMC16/05/R2210): R | antibiotic susceptibility value (host strain YMC16/05/R2210): 128 | susceptibility category (S/I/R) (host strain YMC16/05/R2210): R | susceptibility test value (number given before S/I/R) (host strain YMC16/05/R2210): 128 | antibiotic susceptibility S/I/R (host strain YMC16/07/R2512): R | antibiotic susceptibility value (host strain YMC16/07/R2512): 128 | susceptibility category (S/I/R) (host strain YMC16/07/R2512): R | susceptibility test value (number given before S/I/R) (host strain YMC16/07/R2512): 128 | antibiotic susceptibility S/I/R (host strain YMC16/09/R2471): R | antibiotic susceptibility value (host strain YMC16/09/R2471): 128 | susceptibility category (S/I/R) (host strain YMC16/09/R2471): R | susceptibility test value (number given before S/I/R) (host strain YMC16/09/R2471): 128 | antibiotic susceptibility S/I/R (host strain YMC16/10/R2537): R | antibiotic susceptibility value (host strain YMC16/10/R2537): 128 | susceptibility category (S/I/R) (host strain YMC16/10/R2537): R | susceptibility test value (number given before S/I/R) (host strain YMC16/10/R2537): 128 | antibiotic susceptibility S/I/R (host strain YMC16/12/B11422): R | antibiotic susceptibility value (host strain YMC16/12/B11422): 128 | susceptibility category (S/I/R) (host strain YMC16/12/B11422): R | susceptibility test value (number given before S/I/R) (host strain YMC16/12/B11422): 128 | antibiotic susceptibility S/I/R (host strain YMC16/12/B11449): R | antibiotic susceptibility value (host strain YMC16/12/B11449): 128 | susceptibility category (S/I/R) (host strain YMC16/12/B11449): R | susceptibility test value (number given before S/I/R) (host strain YMC16/12/B11449): 128 | antibiotic susceptibility S/I/R (host strain YMC16/12/B13325): R | antibiotic susceptibility value (host strain YMC16/12/B13325): 128 | susceptibility category (S/I/R) (host strain YMC16/12/B13325): R | susceptibility test value (number given before S/I/R) (host strain YMC16/12/B13325): 128 | antibiotic susceptibility S/I/R (host strain YMC16/12/P503): R | antibiotic susceptibility value (host strain YMC16/12/P503): 128 | susceptibility category (S/I/R) (host strain YMC16/12/P503): R | susceptibility test value (number given before S/I/R) (host strain YMC16/12/P503): 128 | antibiotic susceptibility S/I/R (host strain YMC16/12/R4637): R | antibiotic susceptibility value (host strain YMC16/12/R4637): 128 | susceptibility category (S/I/R) (host strain YMC16/12/R4637): R | susceptibility test value (number given before S/I/R) (host strain YMC16/12/R4637): 128 | antibiotic susceptibility S/I/R (host strain YMC17/01/B8053): R | antibiotic susceptibility value (host strain YMC17/01/B8053): 128 | susceptibility category (S/I/R) (host strain YMC17/01/B8053): R | susceptibility test value (number given before S/I/R) (host strain YMC17/01/B8053): 128 | antibiotic susceptibility S/I/R (host strain YMC17/01/B10087): R | antibiotic susceptibility value (host strain YMC17/01/B10087): 128 | susceptibility category (S/I/R) (host strain YMC17/01/B10087): R | susceptibility test value (number given before S/I/R) (host strain YMC17/01/B10087): 128 | antibiotic susceptibility S/I/R (host strain YMC17/01/B12075): R | antibiotic susceptibility value (host strain YMC17/01/B12075): 128 | susceptibility category (S/I/R) (host strain YMC17/01/B12075): R | susceptibility test value (number given before S/I/R) (host strain YMC17/01/B12075): 128 | antibiotic susceptibility S/I/R (host strain YMC17/01/B13454): R | antibiotic susceptibility value (host strain YMC17/01/B13454): 128 | susceptibility category (S/I/R) (host strain YMC17/01/B13454): R | susceptibility test value (number given before S/I/R) (host strain YMC17/01/B13454): 128 | antibiotic susceptibility S/I/R (host strain YMC17/01/P518): R | antibiotic susceptibility value (host strain YMC17/01/P518): 128 | susceptibility category (S/I/R) (host strain YMC17/01/P518): R | susceptibility test value (number given before S/I/R) (host strain YMC17/01/P518): 128 | antibiotic susceptibility S/I/R (host strain YMC17/01/R2812): R | antibiotic susceptibility value (host strain YMC17/01/R2812): 128 | susceptibility category (S/I/R) (host strain YMC17/01/R2812): R | susceptibility test value (number given before S/I/R) (host strain YMC17/01/R2812): 128 | antibiotic susceptibility S/I/R (host strain YMC17/02/B14): R | antibiotic susceptibility value (host strain YMC17/02/B14): 128 | susceptibility category (S/I/R) (host strain YMC17/02/B14): R | susceptibility test value (number given before S/I/R) (host strain YMC17/02/B14): 128 | antibiotic susceptibility S/I/R (host strain YMC17/02/B87): R | antibiotic susceptibility value (host strain YMC17/02/B87): 128 | susceptibility category (S/I/R) (host strain YMC17/02/B87): R | susceptibility test value (number given before S/I/R) (host strain YMC17/02/B87): 128 | antibiotic susceptibility S/I/R (host strain YMC17/02/B721): R | antibiotic susceptibility value (host strain YMC17/02/B721): 128 | susceptibility category (S/I/R) (host strain YMC17/02/B721): R | susceptibility test value (number given before S/I/R) (host strain YMC17/02/B721): 128 | antibiotic susceptibility S/I/R (host strain YMC17/02/B4039): R | antibiotic susceptibility value (host strain YMC17/02/B4039): 128 | susceptibility category (S/I/R) (host strain YMC17/02/B4039): R | susceptibility test value (number given before S/I/R) (host strain YMC17/02/B4039): 128 | antibiotic susceptibility S/I/R (host strain YMC17/02/B4520): R | antibiotic susceptibility value (host strain YMC17/02/B4520): 128 | susceptibility category (S/I/R) (host strain YMC17/02/B4520): R | susceptibility test value (number given before S/I/R) (host strain YMC17/02/B4520): 128 | antibiotic susceptibility S/I/R (host strain YMC17/02/B4864): S | antibiotic susceptibility value (host strain YMC17/02/B4864): 4 | susceptibility category (S/I/R) (host strain YMC17/02/B4864): S | susceptibility test value (number given before S/I/R) (host strain YMC17/02/B4864): 4 | antibiotic susceptibility S/I/R (host strain YMC17/02/B8414): R | antibiotic susceptibility value (host strain YMC17/02/B8414): 128 | susceptibility category (S/I/R) (host strain YMC17/02/B8414): R | susceptibility test value (number given before S/I/R) (host strain YMC17/02/B8414): 128 | antibiotic susceptibility S/I/R (host strain YMC17/02/P523): R | antibiotic susceptibility value (host strain YMC17/02/P523): 128 | susceptibility category (S/I/R) (host strain YMC17/02/P523): R | susceptibility test value (number given before S/I/R) (host strain YMC17/02/P523): 128 | antibiotic susceptibility S/I/R (host strain YMC17/02/R541): R | antibiotic susceptibility value (host strain YMC17/02/R541): 128 | susceptibility category (S/I/R) (host strain YMC17/02/R541): R | susceptibility test value (number given before S/I/R) (host strain YMC17/02/R541): 128 | antibiotic susceptibility S/I/R (host strain YMC17/02/R2392): R | antibiotic susceptibility value (host strain YMC17/02/R2392): 128 | susceptibility category (S/I/R) (host strain YMC17/02/R2392): R | susceptibility test value (number given before S/I/R) (host strain YMC17/02/R2392): 128 | antibiotic susceptibility S/I/R (host strain YMC17/03/B4730): R | antibiotic susceptibility value (host strain YMC17/03/B4730): 128 | susceptibility category (S/I/R) (host strain YMC17/03/B4730): R | susceptibility test value (number given before S/I/R) (host strain YMC17/03/B4730): 128 | antibiotic susceptibility S/I/R (host strain YMC17/03/B5000): R | antibiotic susceptibility value (host strain YMC17/03/B5000): 128 | susceptibility category (S/I/R) (host strain YMC17/03/B5000): R | susceptibility test value (number given before S/I/R) (host strain YMC17/03/B5000): 128 | antibiotic susceptibility S/I/R (host strain YMC17/03/P971): R | antibiotic susceptibility value (host strain YMC17/03/P971): 128 | susceptibility category (S/I/R) (host strain YMC17/03/P971): R | susceptibility test value (number given before S/I/R) (host strain YMC17/03/P971): 128 | antibiotic susceptibility S/I/R (host strain YMC17/03/R348): R | antibiotic susceptibility value (host strain YMC17/03/R348): 128 | susceptibility category (S/I/R) (host strain YMC17/03/R348): R | susceptibility test value (number given before S/I/R) (host strain YMC17/03/R348): 128 | antibiotic susceptibility S/I/R (host strain YMC17/03/R585): R | antibiotic susceptibility value (host strain YMC17/03/R585): 128 | susceptibility category (S/I/R) (host strain YMC17/03/R585): R | susceptibility test value (number given before S/I/R) (host strain YMC17/03/R585): 128 | antibiotic susceptibility S/I/R (host strain YMC17/03/R1888): R | antibiotic susceptibility value (host strain YMC17/03/R1888): 128 | susceptibility category (S/I/R) (host strain YMC17/03/R1888): R | susceptibility test value (number given before S/I/R) (host strain YMC17/03/R1888): 128 | antibiotic susceptibility S/I/R (host strain YMC17/03/R3279): R | antibiotic susceptibility value (host strain YMC17/03/R3279): 128 | susceptibility category (S/I/R) (host strain YMC17/03/R3279): R | susceptibility test value (number given before S/I/R) (host strain YMC17/03/R3279): 128 | antibiotic susceptibility S/I/R (host strain YMC17/03/R4077): R | antibiotic susceptibility value (host strain YMC17/03/R4077): 128 | susceptibility category (S/I/R) (host strain YMC17/03/R4077): R | susceptibility test value (number given before S/I/R) (host strain YMC17/03/R4077): 128 | antibiotic susceptibility S/I/R (host strain YMC17/03/R4607): R | antibiotic susceptibility value (host strain YMC17/03/R4607): 128 | susceptibility category (S/I/R) (host strain YMC17/03/R4607): R | susceptibility test value (number given before S/I/R) (host strain YMC17/03/R4607): 128 | antibiotic susceptibility S/I/R (host strain YMC17/04/R488): R | antibiotic susceptibility value (host strain YMC17/04/R488): 128 | susceptibility category (S/I/R) (host strain YMC17/04/R488): R | susceptibility test value (number given before S/I/R) (host strain YMC17/04/R488): 128 | antibiotic susceptibility S/I/R (host strain YMC17/04/R640): R | antibiotic susceptibility value (host strain YMC17/04/R640): 128 | susceptibility category (S/I/R) (host strain YMC17/04/R640): R | susceptibility test value (number given before S/I/R) (host strain YMC17/04/R640): 128 | antibiotic susceptibility S/I/R (host strain YMC/17/05/R1095): R | antibiotic susceptibility value (host strain YMC/17/05/R1095): 128 | susceptibility category (S/I/R) (host strain YMC/17/05/R1095): R | susceptibility test value (number given before S/I/R) (host strain YMC/17/05/R1095): 128
